From patent US20130071874A1, “SYSTEM AND METHOD FOR ANTI-CANCER DRUG CANDIDATE EVALUATION” (priority 2010, published 2013)

How the values were obtained:
[1] = test system: ovarian cancer cell line, CAOV-3; experiment: MiCK-type apoptosis drug screening assay, CAOV-3; assay type: cell-based; conditions: CAOV-3 cells; as Example 1 but with higher drug concentrations
Text: (§1) KU=(VmaxDrug Treated−VmaxControl)×60×y/(ODcell−ODblank).
(§2) Vmax is the maximum kinetic rate, which is the slope of the steep increase in the OD v. time plot when cells are undergoing apoptosis. Vmax in this equation is given in milli-optical density units/hour (mOD/h). ODcell is the initial OD of the control containing cells and ODblank is the initial OD of a blank well containing only medium or medium and drug (the drug may be omitted for some drugs, but for colored drugs in particular it may be included in the blank). y is a coefficient dependent on the cell type being assayed and may be determined experimentally through observation of the cell lines. Further information regarding this equation may be found in Kravtsov et al.
Cancer cells were obtained from exponentially growing cultures in RPMI 1640 medium without phenol red supplemented with 10% heat-inactivated fetal bovine serum, 100 U/ml penicillin and 100 μg/mL streptomycin (complete medium) in humidified air with 5% CO2 at 37° C. Cells were harvested, washed with pre-warmed medium and resuspended in complete medium. Appropriate cell counts and viability were tested.
Cells from each cell line in complete medium were placed in wells of a 96-well plate at a concentration of 2 to 5×10^5 cells/ml. Various dilutions of the drug candidate, Idarubicin, were added to the wells in 5 μL aliquots. Final concentrations for the drug candidate were 0.01, 0.1, 0.5, 1, 5, 10 and 20 μM. The plates were incubated at 37° C. for 30 minutes in a humidified 5% CO2 atmosphere. After this adjustment period, 30 μl of sterile mineral oil was layered on top of each well. The microtiter plate was placed in an incubated spectrophotometer chamber (37° C.) and OD at 600 nm was measured every 5 minutes for a period of 48 hours. The reader was calibrated to zero absorbance using well containing only complete medium and no cells. All tests were performed in triplicate.
Data acquisition and computation was performed using appropriate software. OD readings were plotted against time to provide a kinetic representation of cell responses to the drugs and drug candidate. Kinetic units were calculated for each test well. A kinetic unit below three was considered a negative response and above 3 was considered a positive response. A kinetic unit between 1.5 and 3 was considered a marginal response.
A variety of anti-cancer drugs were tested against a single ovarian cancer cell line, CAOV-3, to determine their suitability for use against ovarian cancer. Tests were performed in a manner similar to those in Example 1, but with higher drug concentrations.

[2] = test system: RAMOS, a B cell line derived from Burkitt's lymphoma; experiment: MiCK-type apoptosis drug screening assay (OD 600 nm, kinetic units), RAMOS; assay type: cell-based, human; conditions: 0.01-20 μM
Text: as §1
as §2, with “al. […]” for “al.”
(§3) Cells from each cell line in complete medium were placed in wells of a 96-well plate at a concentration of 2 to 5×10^5 cells/ml. […] The microtiter plate was placed in an incubated spectrophotometer chamber (37° C.) and OD at 600 nm was measured every 5 minutes for a period of 48 hours. The reader was calibrated to zero absorbance using well containing only complete medium and no cells. […]
(§4) Data acquisition and computation was performed using appropriate software. OD readings were plotted against time to provide a kinetic representation of cell responses to the drugs and drug candidate. Kinetic units were calculated for each test well. […]

[3] = test system: MOLT-3, an acute T-cell lymphoblastic leukemia; experiment: MiCK-type apoptosis drug screening assay (OD 600 nm, kinetic units), MOLT-3; assay type: cell-based, human; conditions: MOLT-3 cells; 0.01-20 μM
Text: as §1
as §2, with “al. […]” for “al.”
as §3, §4

Row | Compound | response / suitability (in words) [1] | response versus concentration (in words) [2] | kinetic unit readings versus concentration (in words) [3]
1 | O=C1[O][Pt]2([NH][C@@H]3CCCC[C@H]3[NH]2)[O]C1=O [Oxaliplatin] | not suitable drugs for treating ovarian cancer | – | –
2 | O=C1c2c(O)ccc(O)c2C(=O)c2c(NCCNCCO)ccc(NCCNCCO)c21 [Mitoxantrone] | positive response at reasonable concentrations | – | –
3 | CCC1=C[C@@H]2CN(C1)Cc1c([nH]c3ccccc13)[C@@](C(=O)OC)(c1cc3c(cc1OC)N(C)[C@H]1[C@@](O)(C(=O)OC)[C@H](OC(C)=O)[C@]4(CC)C=CCN5CC[C@]31[C@@H]54)C2 [Vinorelbine] | not suitable drugs for treating ovarian cancer | – | –
4 | COc1cccc2c1C(=O)c1c(O)c3c(c(O)c1C2=O)C[C@@](O)(C(C)=O)C[C@@H]3O[C@H]1C[C@H](N)[C@H](O)[C@H](C)O1 [Daunorubicin] | positive response at reasonable concentrations | – | –
5 | CO[C@@]12[C@H](COC(N)=O)C3=C(C(=O)C(C)=C(N)C3=O)N1C[C@@H]1N[C@@H]12 [Mitomycin] | positive response at reasonable concentrations | – | –
6 | CCc1c2c(nc3ccc(OC(=O)N4CCC(N5CCCCC5)CC4)cc13)-c1cc3c(c(=O)n1C2)COC(=O)[C@]3(O)CC [Irinotecan] | need to use high concentrations of the drug to achieve a positive response | – | –
7 | CC(=O)[C@]1(O)Cc2c(O)c3c(c(O)c2[C@@H](O[C@H]2C[C@H](N)[C@H](O)[C@H](C)O2)C1)C(=O)c1ccccc1C3=O [Idarubicin, 4-demethoxydaunorubicin] | positive response at reasonable concentrations | positive response was seen in the Ramos cell line only at high concentrations | higher kinetic unit readings at lower concentrations
